Source: patent publication US20030007964A1, “Method for treating rheumatoid arthritis with composition containing histone” (SAMYANG GENEX CORPORATION, priority 1998, published 2003)

Legend:
[1] = tested on: collagen induced arthritis; assay: Treatment effect on collagen induced arthritis in mice, histone H1 (Example 4); assay type: in vivo, DBA/1J female mice; parameters: key to arthritis index: sum of 0–3 per-foot scores over 4 feet, max 12
Protocol: (§1) Five-week old DBA/1J female mice were imported from Charles River Japan and allowed to adapt in an animal room for two weeks before using them in the experiments at the age of 7 weeks (20-25 g).
(§2) Isolated and quantified type II collagen of chicken (Sigma Chemical Co., St. Louis, Mo., U.S.A.) was solubilized in 0.1 N acetic acid at a concentration of 2 mg/ml. The solution was mixed with an equal amount of a complete Freund's adjuvant at 4° C. to form a suspension. One hundred microliters of this mixture was injected […] around the origin of the tail vein and further inoculated at 3 and 6 weeks after the first injection (D. E. Trentham et. al., Autoimmunity to Type II collagen: An Experimental Model of Arthritis, J. Exp. Med. 146; 857-868 (1977)). Arthritis was induced from the 4th week after the first injection.
(§3) Clinical incidence of arthritis % (C.I.A) and arthritis index were examined. C.I.A. was expressed as the percentage of mice that have arthritic symptoms among the total mice. The degree of inflammation expressed as the arthritis index was categorized from 0 to 3 by 2 researchers every week as below. Pictures of the feet of some mice were taken 6 weeks after the collagen administration.
(§4) 1: One or two toes were swollen with suffusion or had minimal swelling
(§5) 2: Definite suffusion or local swelling in many toes
(§6) 3: Observation of severe edema and swelling up to the knee and restricted use of the feet.
(§7) The arthritis index was calculated for 4 feet (2 hind feet and 2 fore feet) giving the maximum value of 12. An index of 6-8 was considered severe since collagen induced arthritis invades in general mainly the hind feet (Korea J. Immunol. 18, 437, 1996; J. Immunol. 151, 6546,1993).
As a test group to examine the treatment effect, 1 mg/kg body weight of histone H1 was administered into 10 mice via intraperitoneal injection 2 times every week from the 6th week (after arthritis induction) up to the 10th week. Histone H1 was diluted at a concentration of 5 mg/ml in PBS. As a comparison group, 1 mg/kg body weight of dexamethasone, a currently available rheumatoid arthritis drug, was administered into 10 mice via an intraperitoneal injection 2 times every week from the 6th week (after arthritis induction) up to the 10th week. Identical control group was used as in EXAMPLE 1.

[2] = tested on: collagen induced arthritis; assay: Preventive effect against collagen induced arthritis in mice (Example 3); assay type: in vivo, DBA/1J female mice; conditions: preventive regimen
Protocol: as §1, §2, §3, §4, §5, §6, §7
As a test group to examine the preventive effect, 1 mg/kg body weight of histone H1 was administered into 10 mice via intraperitoneal injection 2 times every week from the third week (before arthritis induction) up to 10th week after the first injection. Histone H1 was diluted at a concentration of 5 mg/ml in PBS. As a comparison group, 1 mg/kg body weight of dexamethasone, a currently available rheumatoid arthritis drug, was administered into 10 mice via intraperitoneal injection 2 times every week from the third week (before arthritis induction) up to 10th week after the first injection. As a control group, 300 μl of PBS was administered into 20 mice 2 times every week from the third week up to 10th week after the first collagen injection.

[3] = tested on: collagen induced arthritis; assay: Treatment effect on collagen induced arthritis in mice, histone H2A and its active fragment (Example 7); assay type: in vivo
Protocol: as §1, §2, §3, §4, §5, §6, §7
As a test group to examine the treatment effect, 5 mice for histone H2A and 7mice for histone H2A active fragment were used. 1 mg/kg body weight of histone H2A or histone H2A active fragment was administered into the mice via intraperitoneal injection 2 times every week from the 6th week (after arthritis induction) up to the 10th week. Histone H2A or histone H2A active fragment was diluted at a concentration of 5 mg/ml in PBS. As a comparison group, 1 mg/kg body weight of dexamethasone, a currently available rheumatoid arthritis drug, was administered into 7 mice via an intraperitoneal injection 2 times every week from the 6th week (after arthritis induction) up to the 10th week. As a control group, […] of PBS was administered into 7 mice every week from the third week up to 10th week after the first collagen injection.

[4] = tested on: anti-collagen antibody (Type II collagen); assay: Serum anti-collagen antibody level by ELISA; assay type: in vivo, mice; conditions: serum at 10th week
Protocol: At the 10th week the serum was isolated from the blood obtained through a heart puncture. The serum was kept at −80° C. and thawed immediately before the experiment to measure the anti-collagen antibody level by performing an ELISA (D. E. Tretham & R. A. Dynesius-Trentham, J. Immunol. 130; 2689-2692 (1983)). Type II collagen (25 μg/ml) in 0.1 M PBS was placed in each well of a 96-well polystyrene microplate (Nunc, Denmark) and was incubated at 4° C. for 8 hours. After the incubation, the wells were washed several times with a PBS-0.05% Tween 20 solution. To prevent non-specific immune reactions, PBS-0.5% ovalbumin was added in each well and incubated for an hour at room temperature and subsequently washed again with the PBS-0.05% Tween 20 solution. The serum, diluted 500 times with a buffer solution was added in each well and reacted for 2 hours at room temperature and further washed with the PBS-0.05% Tween 20 solution. After reacting each well with alkaline phosphatase conjugated goat anti-mouse IgA and IgM for 2 hours and adding 1 mg/ml of p-nitrophenyl phosphate, the absorbance at 450 nm was measured. The anti-collagen antibody level was measured twice for each sample and averaged.
The anti-collagen antibody level was measured to estimate the immune reaction as in EXAMPLE 3. […]

[5] = tested on: collagen induced arthritis; assay: Pathological observation of leg joints by H-E staining; assay type: in vivo, mice; conditions: treatment regimen; 10 weeks after antigen inoculation
From the text: Mice were sacrificed by blood evacuation from the heart. The legs were cut immediately after the sacrifice and fixed in formalin. After the decalcification, legs were stained by hematoxylin-Eosin.

[6] = treatment regimen from 6th week, 7th week
[7] = treatment regimen from 6th week, 8th week
[8] = treatment regimen from 6th week, 10th week
[9] = test group at 5th week, before administration (baseline)

C[C@@H]1C[C@H]2[C@@H]3CCC4=CC(=O)C=C[C@]4(C)[C@@]3(F)[C@@H](O)C[C@]2(C)[C@@]1(O)C(=O)CO [dexamethasone, reference compound]
C.I.A. (clinical incidence of arthritis) [1, 6]: 22.2%
arthritis index [1, 6]: 2.67
C.I.A. (clinical incidence of arthritis) [1, 7]: 33.3%
arthritis index [1, 7]: 1.67
C.I.A. (clinical incidence of arthritis) ([1]; treatment regimen from 6th week, 9th week): 22.2%
arthritis index [1, 8]: 3.00
arthritis index ([2]; 5 weeks): 2.00
arthritis index ([2]; 6 weeks): 1.50
arthritis index ([3]; 1 mg/kg i.p. from 6th week, 8th week): 4.57
arthritis index ([3]; 1 mg/kg i.p. from 6th week, 9th week): 1.86
arthritis index ([3]; 1 mg/kg i.p. from 6th week, 10th week): 1.86

Histone H1
anti-collagen antibody level (absorbance at 450 nm) ([4]; preventive regimen, diluted 500 times): 0.588±.214
anti-collagen antibody level (absorbance at 450 nm) ([4]; treatment regimen (from 6th week)): 0.540±170
edema of fore feet (pictures) ([1]; 6th week after administration of the collagen): improvement of edema was observed
arthritis index [1, 9]: 3.33±0.58
arthritis index ([1]; treatment regimen from 6th week, 6th week): 2.67±0.58
C.I.A. (clinical incidence of arthritis) [1, 6]: 12.5%
arthritis index [1, 6]: 1.00
C.I.A. (clinical incidence of arthritis) [1, 7]: 14.3%
arthritis index [1, 7]: 2
C.I.A. (clinical incidence of arthritis) [1, 8]: 14.3%
arthritis index [1, 8]: 1.00
fraction of the induced arthritis completely cured ([1]; treatment regimen from 6th week, after the 7th week): ⅔
C.I.A. (clinical incidence of arthritis) ([1]; treatment regimen, 1 mg/kg i.p. 2 times every week from 6th week, 6th week): 37.5%
formation of pannus, erosion of cartilage or manifestation of inflammatory cells (H-E staining) [5]: not observed
week at which arthritis was first observed after the inoculation ([2]; 1 mg/kg i.p.): 7 week
arthritis induction ([2]; 1 mg/kg i.p. 2 times every week from third week, up to the 6th week): complete prevention of arthritis induction
C.I.A. (clinical incidence of arthritis) ([2]; 1 mg/kg i.p., 7th week): 60%
C.I.A. (clinical incidence of arthritis) ([2]; 1 mg/kg i.p., 8th week): 60%
C.I.A. (clinical incidence of arthritis) ([2]; 1 mg/kg i.p., 10th week): 80%
arthritis index relative to the control group ([2]; 7th week): 60%
arthritis index ([2]; mice that had arthritis, 10th week): 2.25±1.26

Histone H2A
arthritis index ([3]; 1 mg/kg i.p. 2 times every week from 6th week, 7th week): 4.80±0.45
arthritis index ([3]; 1 mg/kg i.p. from 6th week, after the 9th week): 2.80
arthritis index [3, 9]: 3.60±0.55
